In PubChem BioAssay (NCI):
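GI50: concentration for 50% inhibition of growth. TGI: total growth inhibition.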

How the values were obtained:
Experiment in all cases: growth of human tumour cells (NCI), 384-well format
EKVX NSCLC = tested on: EKVX NSCLC
HCC-2998 colon = tested on: HCC-2998 colon
SK-OV-3 ovarian = tested on: SK-OV-3 ovarian
UACC-62 melanoma = tested on: UACC-62 melanoma
KM12 colon = tested on: KM12 colon
RPMI-8226 leukemia = tested on: RPMI-8226 leukemia
UO-31 renal = tested on: UO-31 renal
NCI-H322M lung = tested on: NCI-H322M lung
IGROV1 ovarian = tested on: IGROV1 ovarian
HL-60(TB) leukemia = tested on: HL-60(TB) leukemia
TK-10 renal = tested on: TK-10 renal
SK-MEL-5 melanoma = tested on: SK-MEL-5 melanoma
OVCAR-8 ovarian = tested on: OVCAR-8 ovarian
NCI/ADR-RES ovarian = tested on: NCI/ADR-RES ovarian
SF-539 CNS = tested on: SF-539 CNS
U251 glioblastoma = tested on: U251 glioblastoma
SN12C renal = tested on: SN12C renal
RXF 393 renal = tested on: RXF 393 renal
HCT-15 colon = tested on: HCT-15 colon
K-562 leukemia = tested on: K-562 leukemia
MDA-MB-231 breast = tested on: MDA-MB-231 breast
HS 578T breast = tested on: HS 578T breast
T-47D breast = tested on: T-47D breast
MDA-MB-435 melanoma = tested on: MDA-MB-435 melanoma
NCI-H23 lung = tested on: NCI-H23 lung
BT-549 breast = tested on: BT-549 breast
NCI-H460 NSCLC = tested on: NCI-H460 NSCLC
MCF7 breast = tested on: MCF7 breast
CAKI-1 renal = tested on: CAKI-1 renal

SMILES: Cc1ccc(NC(=O)c2ccnc(C(F)(F)F)c2)cc1-c1cc(OCCO)nc(N2CCOCC2)c1
- GI50 (EKVX NSCLC): 2.85 µM
- TGI (EKVX NSCLC): 14.8 µM
- GI50 (HCC-2998 colon): 0.224 µM
- TGI (HCC-2998 colon): 1.27 µM
- GI50 (SK-OV-3 ovarian): 1.78 µM
- TGI (SK-OV-3 ovarian): 17.8 µM
- GI50 (UACC-62 melanoma): 0.152 µM
- TGI (UACC-62 melanoma): 0.526 µM
- GI50 (KM12 colon): 0.523 µM
- TGI (KM12 colon): 5.77 µM
- GI50 (RPMI-8226 leukemia): 0.344 µM
- TGI (RPMI-8226 leukemia): 0.974 µM
- GI50 (UO-31 renal): 1.12 µM
- TGI (UO-31 renal): 3.41 µM
- GI50 (NCI-H322M lung): 2.01 µM
- TGI (NCI-H322M lung): 16.2 µM
- GI50 (IGROV1 ovarian): 0.697 µM
- TGI (IGROV1 ovarian): 11.4 µM
- GI50 (HL-60(TB) leukemia): 0.068 µM
- TGI (HL-60(TB) leukemia): 1.09 µM
- GI50 (TK-10 renal): 1.03 µM
- TGI (TK-10 renal): 87.6 µM
- GI50 (SK-MEL-5 melanoma): 0.155 µM
- TGI (SK-MEL-5 melanoma): 0.437 µM
- GI50 (OVCAR-8 ovarian): 0.777 µM
- TGI (OVCAR-8 ovarian): 4.6 µM
- GI50 (NCI/ADR-RES ovarian): 2.19 µM
- TGI (NCI/ADR-RES ovarian): 5.24 µM
- GI50 (SF-539 CNS): 0.927 µM
- TGI (SF-539 CNS): 3.75 µM
- GI50 (U251 glioblastoma): 0.595 µM
- TGI (U251 glioblastoma): 5.43 µM
- GI50 (SN12C renal): 1.18 µM
- TGI (SN12C renal): 10.4 µM
- GI50 (RXF 393 renal): 0.342 µM
- TGI (RXF 393 renal): 1.96 µM
- GI50 (HCT-15 colon): 0.339 µM
- TGI (HCT-15 colon): 9.05 µM
- GI50 (K-562 leukemia): 0.428 µM
- TGI (K-562 leukemia): 1.72 µM
- GI50 (MDA-MB-231 breast): 0.0373 µM
- TGI (MDA-MB-231 breast): 12.1 µM
- GI50 (HS 578T breast): 1.19 µM
- TGI (HS 578T breast): 3.65 µM
- GI50 (T-47D breast): 0.754 µM
- TGI (T-47D breast): 5.92 µM
- GI50 (MDA-MB-435 melanoma): 0.289 µM
- TGI (MDA-MB-435 melanoma): 0.922 µM
- GI50 (NCI-H23 lung): 0.0792 µM
- TGI (NCI-H23 lung): 1.1 µM
- GI50 (BT-549 breast): 1.21 µM
- TGI (BT-549 breast): 6.68 µM
- GI50 (NCI-H460 NSCLC): 0.379 µM
- TGI (NCI-H460 NSCLC): 10.6 µM
- GI50 (MCF7 breast): 0.951 µM
- TGI (MCF7 breast): 10.9 µM
- GI50 (CAKI-1 renal): 0.847 µM
- TGI (CAKI-1 renal): 18.1 µM
